How the values were obtained:
Assay type in all cases: cell-based
RORγ = biological target: T1, RORγ (Homo sapiens, UniProt P51449); assay: RORγ Gal4 reporter assay (Gal4-luciferase, Jurkat cells); details: Jurkat cells over-expressing RORγ, overnight incubation
T1 construct: Jurkat pEx/Gal/hRORγCLBD/HYG pG5luc/blast; expressed in transfected cells
T1 sequence (P51449 269-508 limits assumed): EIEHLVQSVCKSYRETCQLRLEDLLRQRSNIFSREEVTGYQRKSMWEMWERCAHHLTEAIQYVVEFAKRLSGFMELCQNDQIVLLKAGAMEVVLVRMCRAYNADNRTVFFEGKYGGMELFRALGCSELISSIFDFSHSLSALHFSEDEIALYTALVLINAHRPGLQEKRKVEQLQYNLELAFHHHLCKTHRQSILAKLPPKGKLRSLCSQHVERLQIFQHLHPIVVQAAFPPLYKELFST
Method: General RORγ Gal4 Reporter Assay
Inverse agonist activity of potential ligands to RORγ was measured by inhibition of luminescence in a Gal4-luciferase reporter assay in Jurkat cells.
The following day, cells were lysed with 10 μL of Steady-Glo Luciferase Assay System (Promega Cat. No. EZ550), and analyzed immediately. IC50 values were determined.

IL17A = assay: Human whole blood assay (IL17A content, AlphaLISA); details: compared with Compound A
Method: The compounds were diluted in dimethyl sulfoxide (DMSO) and were transferred to individual wells of a Matrix Technologies clear, V-bottom 384-well plate using the ECHO acoustic liquid handling technology (60 nL per well). Human whole blood samples (30 μL) were added to each well using a CyBio FeliX liquid handling instrument and the plate was shaken on a plate shaker for 3 min, incubating at 37° C. for 1 h. Wells were then treated with CD3+CD28 with a final concentration of 1 μg/mL, 30 μL per well in an AIM-V medium, the plate was shaken on a plate shaker for 3 min before incubating the reaction mixtures at 37° C. for 20 h. Plasma was liberated from each sample by centrifugation (450 g, 5 min, ambient temperature).

[1] = biological target: T2, human sodium channel gene SCN5A ion channel (Homo sapiens, UniProt Q14524); assay: Patch clamp assay for sodium channel recording; details: HEK 293 cells expressing SCN5A
T2 construct: expressed in transfected cells
T2 sequence (Q14524 whole entry): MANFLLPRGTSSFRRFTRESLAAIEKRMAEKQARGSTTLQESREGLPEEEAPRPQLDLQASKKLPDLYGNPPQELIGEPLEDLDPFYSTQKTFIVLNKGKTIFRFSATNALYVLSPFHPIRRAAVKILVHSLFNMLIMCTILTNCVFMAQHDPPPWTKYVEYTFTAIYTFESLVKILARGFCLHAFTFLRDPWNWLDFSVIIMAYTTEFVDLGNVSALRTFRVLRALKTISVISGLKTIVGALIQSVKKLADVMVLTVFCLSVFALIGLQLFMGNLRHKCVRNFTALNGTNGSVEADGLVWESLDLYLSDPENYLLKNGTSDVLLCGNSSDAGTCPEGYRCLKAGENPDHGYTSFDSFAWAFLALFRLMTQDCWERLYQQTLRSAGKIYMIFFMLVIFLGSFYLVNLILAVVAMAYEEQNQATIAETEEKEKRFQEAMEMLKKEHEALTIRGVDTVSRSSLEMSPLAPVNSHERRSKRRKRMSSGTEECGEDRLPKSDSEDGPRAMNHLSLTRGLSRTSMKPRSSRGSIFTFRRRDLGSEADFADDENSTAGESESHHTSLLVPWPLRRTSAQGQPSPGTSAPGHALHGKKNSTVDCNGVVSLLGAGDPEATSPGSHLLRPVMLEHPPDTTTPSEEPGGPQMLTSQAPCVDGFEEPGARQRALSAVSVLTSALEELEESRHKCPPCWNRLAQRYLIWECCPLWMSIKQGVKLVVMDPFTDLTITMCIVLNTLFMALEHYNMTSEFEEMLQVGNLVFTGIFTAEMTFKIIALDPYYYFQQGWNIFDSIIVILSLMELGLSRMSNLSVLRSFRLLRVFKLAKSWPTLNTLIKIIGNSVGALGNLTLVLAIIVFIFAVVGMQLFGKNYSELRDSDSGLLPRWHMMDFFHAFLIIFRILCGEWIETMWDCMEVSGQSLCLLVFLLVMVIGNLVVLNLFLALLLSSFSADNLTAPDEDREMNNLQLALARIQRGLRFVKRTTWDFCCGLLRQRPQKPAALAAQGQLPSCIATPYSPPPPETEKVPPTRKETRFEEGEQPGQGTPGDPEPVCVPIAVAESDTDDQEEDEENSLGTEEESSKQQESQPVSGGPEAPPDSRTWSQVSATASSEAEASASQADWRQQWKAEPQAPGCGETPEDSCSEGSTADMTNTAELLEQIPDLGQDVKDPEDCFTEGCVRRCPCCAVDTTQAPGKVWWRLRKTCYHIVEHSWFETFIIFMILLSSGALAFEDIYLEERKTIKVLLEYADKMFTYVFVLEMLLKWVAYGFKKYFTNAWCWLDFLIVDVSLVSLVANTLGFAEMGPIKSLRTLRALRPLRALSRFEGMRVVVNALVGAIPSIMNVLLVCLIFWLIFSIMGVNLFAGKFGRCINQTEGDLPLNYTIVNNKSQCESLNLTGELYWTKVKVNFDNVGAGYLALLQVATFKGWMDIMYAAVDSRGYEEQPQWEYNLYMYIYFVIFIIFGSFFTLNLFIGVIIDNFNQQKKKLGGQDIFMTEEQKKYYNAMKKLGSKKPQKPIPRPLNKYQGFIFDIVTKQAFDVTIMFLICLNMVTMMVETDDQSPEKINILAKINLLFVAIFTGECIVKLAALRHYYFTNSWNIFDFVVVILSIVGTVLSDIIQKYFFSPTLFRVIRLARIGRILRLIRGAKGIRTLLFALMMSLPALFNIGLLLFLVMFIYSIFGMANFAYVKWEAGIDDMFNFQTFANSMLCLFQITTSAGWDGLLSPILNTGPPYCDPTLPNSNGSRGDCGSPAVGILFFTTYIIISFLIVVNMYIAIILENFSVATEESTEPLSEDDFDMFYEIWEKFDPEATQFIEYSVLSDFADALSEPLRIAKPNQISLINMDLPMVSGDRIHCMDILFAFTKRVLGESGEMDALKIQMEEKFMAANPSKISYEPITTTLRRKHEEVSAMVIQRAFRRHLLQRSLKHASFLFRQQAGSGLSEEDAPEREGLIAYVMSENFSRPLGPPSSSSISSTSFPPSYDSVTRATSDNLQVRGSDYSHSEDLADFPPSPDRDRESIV
Description: All results are reported as mean±SEM. DMSO was used as a vehicle, with the final concentration of DMSO not exceeding 0.1%.
Membrane current recordings were made with a Multiclamp 700 series integrating patch-clamp amplifier (Axon Instruments, Foster City, California) using the whole-cell variant of the conventional patch-clamp technique. Cells expressing sodium SCN5A ion channels were placed in a plexiglass bath chamber, mounted on the stage of an inverted microscope, and perfused continuously with bath solution.
The sodium current bath solution, contained (in mM): 140 NaCl, 4 KCl, 1.8 CaCl2, 1 MgCl2, 10 glucose, 10 HEPES (pH 7.4, NaOH). […]
For determining steady state inhibition, sodium currents were elicited every 5 seconds (0.2 Hz) using the following voltage protocol. […] The peak sodium current in response to the depolarizing step to −20 mV was monitored in the control buffer and after application of test article until a new steady state in the presence of the test article was achieved. […] Rate dependent inhibition was calculated by comparing the average of the last 3 sweeps of 30 voltage sweeps in presence of test article to the average of the last 3 sweeps of 30 voltage sweeps under control conditions at each frequency tested.
Currents were sampled at rates at least 2 times the low pass filter rate. […] All currents were recorded at room temperature ˜25° C.

Row | Compound | IC50 (RORγ) [nM] | potency in the human whole blood assay relative to Compound A (IL17A) | activity in the Na channel assay (in words) [1] | IC50 ([1]; whole-cell patch clamp, read-out: Na Channel) [nM]
1 | CC(C)(O)CC(=O)N[C@@H]1CC[C@@]2(S(=O)(=O)c3ccc(F)cc3)c3ccc(C(F)(C(F)(F)F)C(F)(F)F)nc3CC[C@@H]12 [Example 2] | 6 | – | – | –
2 | C[C@@](O)(CS(C)(=O)=O)C(=O)N[C@@H]1CC[C@@]2(S(=O)(=O)c3ccc(F)cc3)c3ccc(C(F)(C(F)(F)F)C(F)(F)F)nc3CC[C@@H]12 [Example 1, (S)—N-((6aS,7R,9aS)-9a-((4-fluorophenyl)sulfonyl)-3-(perfluoropropan-2-yl)-6,6a,7,8,9,9a-hexahydro-5H-cyclopenta[f]quinolin-7-yl)-2-hydroxy-2-methyl-3-(methylsulfonyl)propanamide] | – | twice as potent | essentially inactive | > 30000

Continued, in another order:

Row | IC50 (RORγ) [nM] | Compound | potency in the human whole blood assay relative to Compound A (IL17A) | activity in the Na channel assay (in words) [1] | IC50 ([1]; whole-cell patch clamp, read-out: Na Channel) [nM]
3 | 7.9 | O=C(O)C1CC2(C1)CC(C(=O)N[C@@H]1CC[C@@]3(S(=O)(=O)c4ccc(F)cc4)c4ccc(C(F)(C(F)(F)F)C(F)(F)F)nc4CC[C@@H]13)C2 (stereo partly shown) [Example 6] | – | – | –
4 | 8.4 | O=C(N[C@@H]1CC[C@@]2(S(=O)(=O)c3ccc(F)cc3)c3ccc(C(F)(C(F)(F)F)C(F)(F)F)nc3CC[C@@H]12)C1CCS(=O)(=O)CC1 [Example 3] | – | – | –
5 | 3.9 | CC(C)(O)C(=O)N[C@@H]1CC[C@@]2(S(=O)(=O)c3ccc(F)cc3)c3ccc(C(F)(C(F)(F)F)C(F)(F)F)nc3CC[C@@H]12 [Example 4] | – | – | –

From patent US12570609B2, “Tricyclic sulfones as ROR gamma modulators” (BRISTOL-MYERS SQUIBB COMPANY, priority 2020, dated 2026)
